ChEMBL document CHEMBL1201862, “PubChem BioAssay data set” (2004)
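Step 1: Grow cells in 96-well plates. Step 2: Expose to compound for 48 hours at 5 concentrations. Step 3: Interpolate endpoints linearly; if unreached, use highest concentration. GI50 marks 50% less growth.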 The source made the active and inactive calls. Rule as the data show it: active = GI50 up to about 1.1 µM and inactive = higher.

Key:
Test in all cases: growth of human tumour cells (NCI), 48 h
BT-549 = tested on: BT-549
EKVX = tested on: EKVX
HCT-15 = tested on: HCT-15
HOP-62 = tested on: HOP-62
Hs-578T = tested on: Hs-578T
KM12 = tested on: KM12
LOX IMVI = tested on: LOX IMVI
MOLT-4 = tested on: MOLT-4
NCI-H226 = tested on: NCI-H226
NCI-H460 = tested on: NCI-H460
OVCAR-5 = tested on: OVCAR-5
OVCAR-8 = tested on: OVCAR-8
PC-3 = tested on: PC-3
RPMI-8226 = tested on: RPMI-8226
RXF 393 = tested on: RXF 393
SF-268 = tested on: SF-268
SK-MEL-28 = tested on: SK-MEL-28
SK-MEL-5 = tested on: SK-MEL-5
SNB-75 = tested on: SNB-75
UACC-257 = tested on: UACC-257

Compound | GI50 (BT-549) | GI50 (EKVX) | GI50 (HCT-15) [µM] | GI50 (HOP-62) | GI50 (Hs-578T) | GI50 (KM12) | GI50 (LOX IMVI) | GI50 (MOLT-4) | GI50 (NCI-H226) | GI50 (NCI-H460) | GI50 (OVCAR-5) | GI50 (OVCAR-8) | GI50 (PC-3) | GI50 (RPMI-8226) | GI50 (RXF 393) | GI50 (SF-268) | GI50 (SK-MEL-28) | GI50 (SK-MEL-5) | GI50 (SNB-75) | GI50 (UACC-257)
C#CCNC(CCCNC(=N)N)C(=O)O (stereo not given) | > 100 µM (inactive) | > 100 µM (inactive) | > 100 | > 100 µM (inactive) | > 100 µM (inactive) | > 100 µM (inactive) | > 100 µM (inactive) | > 100 µM (inactive) | > 100 µM (inactive) | > 100 µM (inactive) | > 100 µM (inactive) | > 100 µM (inactive) | > 100 µM (inactive) | > 100 µM (inactive) | > 100 µM (inactive) | > 100 µM (inactive) | > 100 µM (inactive) | > 100 µM (inactive) | > 100 µM (inactive) | > 100 µM (inactive)
CC(=O)O[C@H]1C(=O)[C@@]2(C)[C@H]([C@H](OC(=O)c3ccccc3)[C@]3(O)C[C@H](OC(=O)[C@H](O)[C@@H](NC(=O)C(C)(C)C)c4ccccc4)C(C)=C1C3(C)C)[C@]1(OC(C)=O)CO[C@@H]1C[C@@H]2O | 0.342 µM (active) | 1.87 µM (inactive) | 1.41 | 0.215 µM (active) | 0.0485 µM (active) | 0.0221 µM (active) | 0.0542 µM (active) | 0.0454 µM (active) | 0.428 µM (active) | 0.0955 µM (active) | 0.508 µM (active) | 0.0668 µM (active) | 0.0565 µM (active) | 0.0305 µM (active) | 0.188 µM (active) | 0.168 µM (active) | 0.105 µM (active) | 0.0435 µM (active) | 0.0555 µM (active) | 0.127 µM (active)
O=C1C(NS(=O)(=O)c2ccccc2)=C(N(Cc2ccccc2)Cc2ccccc2)C(=O)c2ccccc21 | 16.9 µM (inactive) | 53.7 µM (inactive) | 37.7 | 41 µM (inactive) | 81.3 µM (inactive) | > 100 µM (inactive) | 65.3 µM (inactive) | 21.1 µM (inactive) | 64.7 µM (inactive) | 36.6 µM (inactive) | > 100 µM (inactive) | 70.3 µM (inactive) | 32.4 µM (inactive) | 18.8 µM (inactive) | 15.5 µM (inactive) | 88.1 µM (inactive) | 40.9 µM (inactive) | 80.4 µM (inactive) | 70.8 µM (inactive) | 96.8 µM (inactive)
CC1(C)OCC2OC(n3cnc4c(N)nc(Cl)nc43)C(OS(C)(=O)=O)C2O1 (stereo not given) | > 100 µM (inactive) | > 100 µM (inactive) | > 100 | > 100 µM (inactive) | > 100 µM (inactive) | > 100 µM (inactive) | > 100 µM (inactive) | 48.2 µM (inactive) | > 100 µM (inactive) | > 100 µM (inactive) | > 100 µM (inactive) | > 100 µM (inactive) | > 100 µM (inactive) | > 100 µM (inactive) | > 100 µM (inactive) | > 100 µM (inactive) | > 100 µM (inactive) | > 100 µM (inactive) | > 100 µM (inactive) | > 100 µM (inactive)
O=S(=O)(c1cc(Cl)ccc1Cl)N1CCN(c2ccc(Cl)c(Cl)c2)CC1 | 33.3 µM (inactive) | 32.2 µM (inactive) | > 100 | 18.2 µM (inactive) | 29.9 µM (inactive) | 28.2 µM (inactive) | > 100 µM (inactive) | > 100 µM (inactive) | 21.7 µM (inactive) | > 10 µM (inactive) | > 100 µM (inactive) | 23.3 µM (inactive) | 99.8 µM (inactive) | > 100 µM (inactive) | 21 µM (inactive) | 27.3 µM (inactive) | > 100 µM (inactive) | 22.8 µM (inactive) | 14 µM (inactive) | 33.3 µM (inactive)
CC(C)(Cl)C(Cl)CC/C(CBr)=C(\Cl)CCl (stereo not given) | 1.84 µM (inactive) | 17.7 µM (inactive) | 1.97 | 11.8 µM (inactive) | 5.32 µM (inactive) | 7.01 µM (inactive) | 0.406 µM (active) | 0.491 µM (active) | 4.69 µM (inactive) | 12.7 µM (inactive) | 14.7 µM (inactive) | 3.17 µM (inactive) | 7.31 µM (inactive) | 1.89 µM (inactive) | 10.6 µM (inactive) | 7.8 µM (inactive) | 2.92 µM (inactive) | 2.31 µM (inactive) | 4.45 µM (inactive) | 3.25 µM (inactive)
O=C(O)C1CCCN1Cc1cc2ccccc2c2ccccc12 (stereo not given) | > 100 µM (inactive) | > 100 µM (inactive) | > 100 | > 100 µM (inactive) | > 100 µM (inactive) | > 100 µM (inactive) | > 100 µM (inactive) | > 100 µM (inactive) | > 100 µM (inactive) | > 100 µM (inactive) | > 100 µM (inactive) | > 100 µM (inactive) | > 100 µM (inactive) | > 100 µM (inactive) | > 100 µM (inactive) | > 100 µM (inactive) | > 100 µM (inactive) | > 100 µM (inactive) | > 100 µM (inactive) | > 100 µM (inactive)
COC(=O)/C=C(\S/C(=N\n1cc(C(=O)OC)c(C(=O)OC)c1-c1ccc(C)cc1)c1ccc(C)cc1)C(=O)OC | 7.23 µM (inactive) | 15.7 µM (inactive) | 2.28 | 16.9 µM (inactive) | 18.4 µM (inactive) | 19.1 µM (inactive) | 2.84 µM (inactive) | 4.26 µM (inactive) | 1.7 µM (inactive) | 17.7 µM (inactive) | 6.7 µM (inactive) | 12.9 µM (inactive) | 5.28 µM (inactive) | 1.44 µM (inactive) | 5.47 µM (inactive) | 16.1 µM (inactive) | 5.78 µM (inactive) | 13.4 µM (inactive) | 11.5 µM (inactive) | 4.72 µM (inactive)
CC[n+]1c(/C=C/c2ccc(N(CCCl)CCCl)cc2)ccc2cc(NC(=O)/C=C/c3ccccc3)ccc21 | 0.628 µM (active) | 0.927 µM (active) | 14.2 | 0.318 µM (active) | 0.0912 µM (active) | 0.423 µM (active) | 0.329 µM (active) | 0.286 µM (active) | 0.456 µM (active) | 0.245 µM (active) | 0.748 µM (active) | 0.406 µM (active) | 0.402 µM (active) | 0.218 µM (active) | 0.315 µM (active) | 0.393 µM (active) | 0.762 µM (active) | 0.174 µM (active) | 0.131 µM (active) | 0.787 µM (active)
Nc1nc(N)c2nc(CN(C=O)c3ccc(C(=O)O)cc3)cnc2n1 | > 26.6 µM (inactive) | > 26.4 µM (inactive) | 7.14 | 14 µM (inactive) | > 100 µM (inactive) | 6.64 µM (inactive) | 4.27 µM (inactive) | 4.81 µM (inactive) | > 100 µM (inactive) | 7.55 µM (inactive) | > 70 µM (inactive) | 3.85 µM (inactive) | 0.668 µM (active) | 14.7 µM (inactive) | > 100 µM (inactive) | 9.68 µM (inactive) | > 100 µM (inactive) | 63.4 µM (inactive) | > 52.1 µM (inactive) | > 100 µM (inactive)
CCN1C/C(=C\c2ccc(Cl)cc2)c2nc(N)c(C#N)c(-c3ccc(Cl)cc3)c2C1 | > 100 µM (inactive) | > 100 µM (inactive) | > 100 | > 100 µM (inactive) | > 100 µM (inactive) | > 100 µM (inactive) | > 100 µM (inactive) | 67.9 µM (inactive) | > 100 µM (inactive) | > 100 µM (inactive) | > 100 µM (inactive) | > 100 µM (inactive) | > 100 µM (inactive) | > 100 µM (inactive) | > 100 µM (inactive) | > 100 µM (inactive) | > 100 µM (inactive) | > 100 µM (inactive) | 60.3 µM (inactive) | > 100 µM (inactive)
CC(C(=O)ON1C(=O)CCC1=O)c1ccc(C(=O)c2ccccc2)s1 (stereo not given) | > 100 µM (inactive) | > 100 µM (inactive) | > 100 | > 100 µM (inactive) | > 100 µM (inactive) | > 100 µM (inactive) | > 100 µM (inactive) | > 100 µM (inactive) | > 100 µM (inactive) | > 100 µM (inactive) | > 100 µM (inactive) | > 100 µM (inactive) | > 100 µM (inactive) | > 100 µM (inactive) | > 100 µM (inactive) | > 100 µM (inactive) | > 100 µM (inactive) | > 100 µM (inactive) | > 100 µM (inactive) | > 100 µM (inactive)
Oc1ccc2c(c1)OCC1c3ccccc3OC21 (stereo not given) | 55.2 µM (inactive) | 27.9 µM (inactive) | 82.6 | > 100 µM (inactive) | 47.5 µM (inactive) | 45.4 µM (inactive) | 32.3 µM (inactive) | 19.6 µM (inactive) | > 100 µM (inactive) | 41.6 µM (inactive) | > 100 µM (inactive) | 48.3 µM (inactive) | 56.8 µM (inactive) | 45.7 µM (inactive) | 94.2 µM (inactive) | 25.4 µM (inactive) | > 100 µM (inactive) | 38.5 µM (inactive) | 45.2 µM (inactive) | 86.9 µM (inactive)
CCOP(=O)(CC1CC(O)(CNc2cc(Cl)nc(N)n2)C1)OCC (stereo not given) | > 100 µM (inactive) | > 100 µM (inactive) | > 100 | > 100 µM (inactive) | > 100 µM (inactive) | > 100 µM (inactive) | > 100 µM (inactive) | > 100 µM (inactive) | > 100 µM (inactive) | > 100 µM (inactive) | > 100 µM (inactive) | > 100 µM (inactive) | > 100 µM (inactive) | > 100 µM (inactive) | > 100 µM (inactive) | > 100 µM (inactive) | > 100 µM (inactive) | > 100 µM (inactive) | > 100 µM (inactive) | > 100 µM (inactive)
